Measurements from paper PMC12597549 (Drug Metabolism and Disposition, 2025).

Experiments:
CYP3A = tested on: CYP3A; design: method as in Bansal et al., 2020; conditions: ref Bansal et al., 2020, read-out: KI,u (binding-corrected half-maximal inactivation concentration); cited from earlier work
[1] = set value for static model; ref Cox et al., 2019; cited from earlier work
UGT2B7 [2] = tested on: UGT2B7; design: method as in Bansal et al., 2023; conditions: enzyme kinetic (HLM); ref Bansal et al., 2023; cited from earlier work
CYP2C19 [3] = tested on: CYP2C19; design: method as in Bansal et al., 2023; conditions: enzyme kinetic (HLM); ref Bansal et al., 2023; cited from earlier work
[4] = cannabidiol PBPK input; ref ChEMBL database (https://www.ebi.ac.uk/); cited from earlier work
CYP2C9 = tested on: CYP2C9; design: method as in Bansal et al., 2023; conditions: enzyme kinetic (HLM); ref Bansal et al., 2023; cited from earlier work
[5] = molecular target: T1, UGT2B7 in pooled human liver microsomes (HLM) (Homo sapiens, UniProt P16662); assay: Inhibition of UGT2B7-mediated hydromorphone glucuronidation by cannabinoids in pooled HLM (screening, IC50, Ki, inhibition type); assay type: biochemical; conditions: type of reversible inhibition of UGT2B7-mediated hydromorphone metabolism in HLM; Lineweaver-Burk replots
T1 sequence (P16662 24-529): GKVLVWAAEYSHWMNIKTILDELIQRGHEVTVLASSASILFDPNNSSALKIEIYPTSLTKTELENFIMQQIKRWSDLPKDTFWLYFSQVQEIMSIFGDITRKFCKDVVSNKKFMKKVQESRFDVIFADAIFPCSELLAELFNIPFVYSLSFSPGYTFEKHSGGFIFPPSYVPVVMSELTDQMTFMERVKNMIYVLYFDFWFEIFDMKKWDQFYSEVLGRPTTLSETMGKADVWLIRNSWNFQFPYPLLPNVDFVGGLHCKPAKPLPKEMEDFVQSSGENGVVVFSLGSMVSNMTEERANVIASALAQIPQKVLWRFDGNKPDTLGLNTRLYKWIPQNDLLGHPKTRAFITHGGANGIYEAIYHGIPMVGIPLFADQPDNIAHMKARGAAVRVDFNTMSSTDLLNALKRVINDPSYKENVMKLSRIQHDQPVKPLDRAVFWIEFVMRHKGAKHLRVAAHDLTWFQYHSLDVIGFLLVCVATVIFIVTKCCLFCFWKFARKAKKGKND

UGT2B7 [6] = molecular target: T2, UGT2B7 (Homo sapiens, UniProt P16662); assay: as above; assay type: biochemical; conditions: human, pooled human liver microsomes
T2 sequence (P16662 24-529): T1 sequence (P16662 24-529)

CYP2D6 = tested on: CYP2D6; design: method as in Bansal et al., 2023; conditions: enzyme kinetic (HLM); ref Bansal et al., 2023; cited from earlier work
CYP2B6 = tested on: CYP2B6; design: method as in Bansal et al., 2023; conditions: enzyme kinetic (HLM); ref Bansal et al., 2023; cited from earlier work
UGT1A9 = tested on: UGT1A9; design: method as in Bansal et al., 2023; conditions: enzyme kinetic (HLM); ref Bansal et al., 2023; cited from earlier work
CYP3A4 = tested on: CYP3A4; design: method as in Bansal et al., 2023; conditions: enzyme kinetic (HLM); ref Bansal et al., 2023; cited from earlier work
CYP1A2 [7] = tested on: CYP1A2; design: method as in Bansal et al., 2023; conditions: enzyme kinetic (HLM); ref Bansal et al., 2023; cited from earlier work
CYP2C19 [8] = tested on: CYP2C19; design: method as in Bansal et al., 2020; conditions: ref Bansal et al., 2020, read-out: KI,u (binding-corrected half-maximal inactivation concentration); cited from earlier work
[9] = ref Bansal et al., 2022, cited from earlier work
CYP1A2 [10] = tested on: CYP1A2; design: method as in Bansal et al., 2020; conditions: ref Bansal et al., 2020, read-out: KI,u (binding-corrected half-maximal inactivation concentration); cited from earlier work
UGT2B7^268Tyr = molecular target: T3, UGT2B7^268Tyr (Homo sapiens, UniProt P16662); assay: in vitro
T3 sequence (P16662 24-529): T1 sequence (P16662 24-529)

CYP2C8 = tested on: CYP2C8; design: method as in Bansal et al., 2023; conditions: enzyme kinetic (HLM); ref Bansal et al., 2023; cited from earlier work
[11] = tested on: UGT2B7-mediated hydromorphone metabolism; assay: Static mechanistic IVIVE modeling of cannabinoid-hydromorphone drug interaction (AUCR); design: species or system human; conditions: after inhalation and oral consumption of THC and CBD
[12] = probe hydromorphone 400 μM (HM3G formation)
[13] = first-order absorption model, fasted

In the case of `C=C(C)[C@@H]1CCC(C)=C[C@H]1c1c(O)cc(CCCCC)cc1O` [CBD, cannabidiol], the KI (inactivation) (CYP3A) is listed as 106 nM, the “ka (first-order absorption rate constant)” value [1] is listed as 0.02 and the “CLint, UGT: UGT2B7” value (UGT2B7 [2]) is listed as 2162 µL/min/mg of protein. For the same compound, the “CLint, CYP: CYP2C19” value (CYP2C19 [3]) was 193 µL/min/mg of protein, the “Log P” value [4] was 6.33 and the pKa [4] was 9.13. The “CLint, CYP: CYP2C9” value (CYP2C9) was 93 µL/min/mg of protein, the “Inhibition Type” value [5] was “Competitive” and the IC50 (UGT2B7 [6]; [12]) was 140 ± 40 nM. For the same compound, the inhibition at 100 μM (UGT2B7 [6]; [12]) was 83%, the Ki (UGT2B7 [6]; HLM, Ki corrected for nonspecific binding (fu,inc from refs 32,33; 11-OH-THC fu,inc as surrogate for 7-OH-CBD), competitive model, mixed model for 11-OH-THC, read-out: Ki,u) was 68 ± 3 nM and the “CLint, CYP: CYP2D6” value (CYP2D6) was 38 µL/min/mg of protein. The “CLint, CYP: CYP2B6” value (CYP2B6) was 46 µL/min/mg of protein, the “CLint, UGT: UGT1A9” value (UGT1A9) was 541 µL/min/mg of protein and the “CLint, CYP: CYP3A4” value (CYP3A4) was 220 µL/min/mg of protein. For the same compound, the “CLint, CYP: CYP1A2” value (CYP1A2 [7]) was 56 µL/min/mg of protein, the KI (inactivation) (CYP2C19 [8]) was 73 nM and the Lag time ([9]; fasted) was 1.5^1 hr. For the same compound, the fa [9, 13] was 0.25^1, the ka [9, 13] was 0.55^1 1/hr and the “Fraction unbound in plasma” value [9] was 0.013. The Qgut [9] was 10.24 L/h, the fugut [9] was 0.013 and the KI (inactivation) (CYP1A2 [10]) was 20 nM. For the same compound, the inhibition at 100 μM (UGT2B7^268Tyr) was 96%, the “CLint, CYP: CYP2C8” value (CYP2C8) was 51 µL/min/mg of protein and the “increase in hydromorphone exposure (static modeling)” value [11] was over 1.25 fold.
